Data on 27 compounds can be found in patent publication US10316039B2, “P2X3 and/or P2X2/3 compounds and methods” (Asana Biosciences, LLC, priority 2013, dated 2019).

The target of one assay is T1, P2X3 (UniProt P56373).
T1 sequence (P56373 1-397): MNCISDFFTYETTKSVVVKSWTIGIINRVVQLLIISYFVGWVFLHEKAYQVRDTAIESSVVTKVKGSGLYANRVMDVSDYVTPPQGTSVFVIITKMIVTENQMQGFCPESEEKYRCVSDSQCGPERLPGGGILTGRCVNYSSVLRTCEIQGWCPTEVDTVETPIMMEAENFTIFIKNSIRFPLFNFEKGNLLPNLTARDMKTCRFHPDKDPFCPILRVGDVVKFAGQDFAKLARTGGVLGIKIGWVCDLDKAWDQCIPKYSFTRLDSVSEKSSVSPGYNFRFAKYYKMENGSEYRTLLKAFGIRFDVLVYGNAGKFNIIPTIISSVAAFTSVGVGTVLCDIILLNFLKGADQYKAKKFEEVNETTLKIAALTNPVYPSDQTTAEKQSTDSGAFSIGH
Nature of the assay: P2X3 FLIPR intracellular calcium assay. The class given is cell-based. The note with it: agonist at EC75, species (human or rat) not given. The text has this: The FLIPR® assay utilizes cells which express human or rat P2X3 or P2X2/3 receptors. […] The PCR product obtained containing the protein coding sequence of rat P2X2 was cloned into EcoRV-digested and dephosphorylated vector pIRES-puro3 within the multiple cloning site (MCS). See, FIG. 1A.
Rat P2X3 (NCBI Accession No: X91167) was amplified by PCR from rat brain cDNA. The PCR product obtained containing the protein coding sequence of rat P2X3 was cloned into EcoRV-digested and dephosphorylated vector pCDNA-Hygro within the multiple cloning site (MCS) (FIG. 1B). Rat P2X3 cloned into pcDNA-Hygro was then subcloned into pcDNA-5/TO at HindIII (5′) and XhoI (3′) sites within the multiple cloning site (MCS) of the vector (FIG. 1C).
(§1) Transfection was carried out using super-coiled constructs (purified using QIAGEN kit) in antibiotic free, serum free DMEM using Lipofectamine® 2000 (Invitrogen) transfection agent. The DNA constructs rat P2X2 in pIRES-Puro3 and rat P2X3 in pCDNA5/TO were co-transfected into TRex293 cells in order to generate the rP2X2/3 stable line. 50 μg/mL hygromycin (Invitrogen) and 0.5 μg/mL puromycin (Fermentek) were used for selection of stable clones of rP2X2/3. Rat P2X3 in pCDNA5/TO DNA construct was transfected to CHO-TRex cells to generate the rP2×3 stable line and 500 μg/mL hygromycin (Invitrogen) was used as selection antibiotic. Transfected stable colonies were then functionally verified and robust clones suitable for assay were clonally purified through dilutions.
(§2) Cryo-vial containing 6×10^6 cells (human P2X3-HEK/human P2X2/3-TRex293/rat P2X2/3-TRex293/rat P2X3 TRex-CHO) was thawed in a 37° C. water bath. Cells were suspended in 20 mL of respective cell plating media (See annexure for composition) in a 50 mL centrifuge tube. The cell viability was checked with the help of Trypan Blue dye. Upon washing, cells were plated in a black 384-well clear bottomed, sterile poly-D-lysine coated plate such that, each well contained 10,000 cells (15,000/well for hP2X3) in 30 μL cell plating media. The plate was incubated in a 5% CO2 incubator at 37° C. for 24 h.
(§3) The next day, prior to the assay, the cell plating media was removed from each well by decanting and gentle tapping. Thirty μL of FLIPR Calcium 4 dye solution was added to each well. The plate was incubated at 37° C. for 45 min (60 min for hP2X3). The plate was next equilibrated at room temperature for 15 minutes before placing it in a 384 well FLIPR for the assay.
Dilutions were mixed with assay buffer just before performing the assay.
(§4) Compounds were added to the respective wells of the assay-ready cell plate with the help of the FLIPR and fluorescence readings were captured for 5 min to observe any possible agonistic property of the compounds. The plate was then incubated at room temperature for 15 min. The cells were stimulated with respective agonist EC75 concentration and the fluorescence readings were captured for another 5 min by FLIPR. The difference in fluorescence readings in presence of the compounds were compared with that of the control wells (wells having no compound) to calculate the inhibitory potency of the compounds. The IC50 values of the compounds were determined using the Graph pad Prism software.
(vi) Dye Solution Composition • 1×FLIPR Calcium 4 dye in assay buffer (Molecular devices Cat# R8141) • 1.8 mM Probenecid (Sigma Cat# P8761) • pH adjusted to 7.4
Background: Calcium flux is commonly read through the fluorescence of an indicator in the cells.

For the next assay, the target named is T2, P2X2/3 (Homo sapiens, UniProt P56373+Q9UBL9).
T2 sequence (Q9UBL9 1-471): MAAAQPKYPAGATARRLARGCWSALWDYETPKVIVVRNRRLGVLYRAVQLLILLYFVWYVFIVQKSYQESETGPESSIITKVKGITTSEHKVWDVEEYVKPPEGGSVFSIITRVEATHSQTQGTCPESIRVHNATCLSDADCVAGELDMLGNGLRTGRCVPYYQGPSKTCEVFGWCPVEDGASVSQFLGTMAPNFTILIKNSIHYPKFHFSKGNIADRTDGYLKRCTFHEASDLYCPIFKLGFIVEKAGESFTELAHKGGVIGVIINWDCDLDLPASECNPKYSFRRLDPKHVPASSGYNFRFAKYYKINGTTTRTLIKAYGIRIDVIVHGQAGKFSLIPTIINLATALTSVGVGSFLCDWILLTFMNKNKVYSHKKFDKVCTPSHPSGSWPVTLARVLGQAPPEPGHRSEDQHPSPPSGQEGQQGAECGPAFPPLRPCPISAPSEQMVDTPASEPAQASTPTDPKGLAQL
T2 sequence (P56373 1-397): T1 sequence (P56373 1-397)
Nature of the assay: P2X2/3 FLIPR intracellular calcium assay. Format: cell-based. The following applies: agonist at EC75, species (human or rat) not given.
Text: The FLIPR® assay utilizes cells which express human or rat P2X3 or P2X2/3 receptors. Recombinant cells expressing hP2X3 (Cat#6188) and hP2X2/3 (Cat#6179) were procured from Chantest Corp. Rat P2X2 (NCBI Accession No: U14414) was amplified by PCR from PC12 cDNA (a rat adrenal medulla cell line). The PCR product obtained containing the protein coding sequence of rat P2X2 was cloned into EcoRV-digested and dephosphorylated vector pIRES-puro3 within the multiple cloning site (MCS). See, FIG. 1A.
as §1, §2, §3
Compounds were dissolved in DMSO and serially diluted following 11 point half log (3.16 fold) dilution with a starting concentration of 2 mM. Dilutions were mixed with assay buffer just before performing the assay.
as §4
(ii) Cell Plating Media for hP2X3-HEK and hP2X2/3-TRex293 Cells • DMEM/F12 (1:1) HAM media (Invitrogen; Cat#11039) • 1×NEAA (Invitrogen; Cat#11140) • 25 mM HEPES (Invitrogen; Cat#15630) • 1 mM sodium pyruvate (Invitrogen; Cat#11360) • 10% tetracycline negative FBS (PAA; Cat# A15-209) • 1 μg/mL doxycycline (Clontech; Cat#63131) [for hP2X2/3-TRex293 cells only]
(iii) Cell Plating Media for rP2X2/3-TRex293 Cells • DMEM media (Invitrogen; Cat#11965) • 25 mM HEPES (Invitrogen; Cat#15630) • 10% tetracycline negative FBS (PAA; Cat# A15-209) • 1 μg/mL Doxycycline (Clontech; Cat#63131)
(v) Assay Buffer Composition • HBSS (Invitrogen Cat#14025) • 20 mM HEPES (Invitrogen Cat#15630) • 0.01% F127 (Sigma Cat# P2443) • 1.8 mM CaCl2 (Sigma Cat# C5080) • pH adjusted to 7.4 […]

Molecules are shown by their SMILES. pIC50: −log10 of the molar value.

One may read the pIC50 as the negative decadic logarithm of the IC50, by convention in mol/L.

On to `Cc1ccc(CNC(=O)c2cc(-n3nncc3C(F)(F)F)c3ncc(-c4ccc(C)s4)n3c2)cn1` [Example 30], for which the pIC50 at P2X3 and on P2X2/3 was 7.00 to 9.00 throughout.
Regarding `Cc1ncc(CNC(=O)c2cc(-n3nncc3C(F)F)c3ncc(-c4ccc(C)s4)n3c2)cn1` [Example 31], the pIC50 on P2X3 and at P2X2/3 was 7.00 to 9.00 each time.
`Cc1cnc(CNC(=O)c2cc(-n3nncc3C(F)F)c3ncc(-c4ccc(C)s4)n3c2)cn1` [Example 32]: the pIC50 on P2X3 and at P2X2/3 was 7.00 to 9.00 each time.
Regarding `CCc1cnnn1-c1cc(C(=O)NCc2cnc(C)nc2)cn2c(-c3ccc(C)s3)cnc12` [Example 33], the pIC50 at P2X3 and at P2X2/3 was 7.00 to 9.00 throughout.
`Cc1ccc(-c2cnc3c(-n4nncc4C4CC4)cc(C(=O)N[C@@H](C)c4nnc[nH]4)cn23)s1` [Example 34]: the pIC50 at P2X3 and on P2X2/3 was 7.00 to 9.00 throughout.
As for `COc1ncc(CNC(=O)c2cc(-n3nncc3C(F)F)c3ncc(-c4ccc(C)s4)n3c2)cn1` [Example 35], the pIC50 at P2X3 and at P2X2/3 was 7.00 to 9.00 each time.
Consider `Cc1ccc(CNC(=O)c2cc(-n3nncc3C(F)F)c3ncc(-c4ncc(C)s4)n3c2)cn1` [Example 36], for which the pIC50 on P2X3 and at P2X2/3 was 7.00 to 9.00 throughout.
Regarding `Cc1ccc(-c2cnc3c(-n4nncc4C(C)C)cc(C(=O)N[C@@H](C)c4nnc[nH]4)cn23)s1` [Example 37], the pIC50 on P2X3 and on P2X2/3 was 7.00 to 9.00 throughout.
As for `Cc1ncc(CNC(=O)c2cc(-n3nncc3C(F)(F)F)c3ncc(-c4ccc(C)s4)n3c2)cn1` [Example 39], the pIC50 on P2X3 and at P2X2/3 was 7.00 to 9.00 in each case.
Consider `Cc1ncc(CNC(=O)c2cc(-n3nncc3C(C)C)c3ncc(-c4ccc(C)s4)n3c2)cn1` [Example 40], for which the pIC50 at P2X3 is under 5.00; at P2X2/3, 7.00 to 9.00.
Taken in the same sequence, the figures for `Cc1ncc(CNC(=O)c2cc(-n3nncc3C3CC3)c3ncc(-c4ccc(C)s4)n3c2)cn1` [Example 41] were 7.00 to 9.00 and 7.00 to 9.00.
In the same order, the values of `COc1ncc(CNC(=O)c2cc(-n3nncc3C3CC3)c3ncc(-c4ccc(C)s4)n3c2)cn1` [Example 42] are 7.00 to 9.00 and 7.00 to 9.00.
For `Cc1ccc(-c2cnc3c(-n4nncc4C4CCC4)cc(C(=O)N[C@@H](C)c4nnc[nH]4)cn23)s1` [Example 43], the pIC50 on P2X3 and at P2X2/3 was 7.00 to 9.00 in each case.
Turning to `COc1ncc(CNC(=O)c2cc(-n3nncc3C(F)(F)F)c3ncc(-c4ccc(C)s4)n3c2)cn1` [Example 44], the pIC50 on P2X3 and on P2X2/3 was 7.00 to 9.00 each time.
Regarding `Cc1ccc(CNC(=O)c2cc(-n3nncc3C(C)C)c3ncc(-c4ccc(C)s4)n3c2)cn1` [Example 45], the pIC50 on P2X3 is under 5.00; at P2X2/3, 7.00 to 9.00.
Taken in the same sequence, the figures for `Cc1ccc(-c2cnc3c(-n4nncc4C(C)(C)C)cc(C(=O)N[C@@H](C)c4nnc[nH]4)cn23)s1` [Example 46] were 7.00 to 9.00 and 7.00 to 9.00.
Taken in the same sequence, the figures for `Cc1ncc(CNC(=O)c2cc(-n3nncc3C(F)F)c3ncc(-c4ncc(C)s4)n3c2)cn1` [Example 47] were 7.00 to 9.00 and 7.00 to 9.00.
For `Cc1ccc(CNC(=O)c2cc(-n3nncc3C(F)F)c3ncc(-c4ccc(C)o4)n3c2)cn1` [Example 48], the pIC50 on P2X3 and at P2X2/3 was 7.00 to 9.00 throughout.
With `Cc1ncc(CNC(=O)c2cc(-n3nncc3C3CCC3)c3ncc(-c4ccc(C)s4)n3c2)cn1` [Example 49], the results for the pIC50 at P2X3 and on P2X2/3 were under 5.00 and 7.00 to 9.00, respectively.
Turning to `C[C@H](NC(=O)c1cc(-n2nncc2C(F)F)c2ncc(-c3ccc(C#N)s3)n2c1)c1nnc[nH]1` [Example 51], the pIC50 at P2X3 was 6.00 to 7.00; at P2X2/3, 5.00 to 6.00.
Taken in the same sequence, the figures for `Cc1cnc(-c2cnc3c(-n4nncc4C(F)F)cc(C(=O)N[C@@H](C)c4nnc[nH]4)cn23)s1` [Example 53] were 7.00 to 9.00 and 7.00 to 9.00.
In the same order, the values of `Cc1ccc(-c2cnc3c(-n4nncc4C(F)F)cc(C(=O)N[C@H](c4nnc[nH]4)C(C)C)cn23)s1` [Example 54] are 7.00 to 9.00 and 7.00 to 9.00.
In the same order, the values of `Cc1ncc(CNC(=O)c2cc(-n3nncc3C3CCC3)c3ncc(-c4ncc(C)s4)n3c2)cn1` [Example 55] are under 5.00 and 6.00 to 7.00.
Turning to `Cc1ccc(CNC(=O)c2cc(-n3nncc3C(F)(F)F)c3ncc(-c4ncc(C)s4)n3c2)cn1` [Example 56], the pIC50 at P2X3 was 7.00 to 9.00; at P2X2/3, 6.00 to 7.00.
As to `Cc1cnc(-c2cnc3c(-n4nncc4C(C)(C)C)cc(C(=O)N[C@@H](C)c4nnc[nH]4)cn23)s1` [Example 57], the values for the pIC50 on P2X3 and at P2X2/3 were 7.00 to 9.00 and 6.00 to 7.00, respectively.
Taken in the same sequence, the figures for `CCc1cnnn1-c1cc(C(=O)N[C@@H](CC)c2nnc[nH]2)cn2c(-c3ccc(C)s3)cnc12` [Example 58] were 7.00 to 9.00 and 7.00 to 9.00.
Turning to `C[C@H](NC(=O)c1cc(-n2nncc2C(F)F)c2ncc(-c3ccc(C(F)(F)F)s3)n2c1)c1nnc[nH]1` [Example 59], the figures for the pIC50 at P2X3 and at P2X2/3 were 6.00 to 7.00 and 5.00 to 6.00, respectively.
